Activity calls are given as the source filed them.

Experiment [1] addresses T1, High affinity choline transporter 1 (Homo sapiens, UniProt Q9GZV3).
T1 sequence (Q9GZV3 whole entry): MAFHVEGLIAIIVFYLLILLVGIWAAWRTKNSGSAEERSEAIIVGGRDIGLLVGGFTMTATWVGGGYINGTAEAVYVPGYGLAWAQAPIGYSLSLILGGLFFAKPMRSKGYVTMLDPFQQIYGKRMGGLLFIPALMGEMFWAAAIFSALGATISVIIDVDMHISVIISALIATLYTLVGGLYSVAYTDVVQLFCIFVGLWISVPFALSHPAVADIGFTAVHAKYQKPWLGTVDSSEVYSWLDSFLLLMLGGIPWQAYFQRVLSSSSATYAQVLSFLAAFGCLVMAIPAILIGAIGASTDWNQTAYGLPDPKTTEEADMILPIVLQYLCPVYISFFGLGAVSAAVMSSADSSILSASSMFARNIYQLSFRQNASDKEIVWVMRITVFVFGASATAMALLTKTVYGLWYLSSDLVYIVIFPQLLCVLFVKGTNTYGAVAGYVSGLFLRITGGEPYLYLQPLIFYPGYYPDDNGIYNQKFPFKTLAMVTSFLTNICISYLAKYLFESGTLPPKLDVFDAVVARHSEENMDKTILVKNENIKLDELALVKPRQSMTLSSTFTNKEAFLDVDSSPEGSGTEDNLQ
In words: human choline transporter blockers, potency – cell-based, 10-point CRC, membrane potential dye, dose response (AID 588401).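 Also: membrane potential dye fluorescence of choline-evoked depolarization via CHT.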 It counts as functional.

For experiment [2], the target named is T1, High affinity choline transporter 1. In words: human choline transporter blockers, potency – cell-based, 5-point CRC, membrane potential dye, dose response (AID 504840). It counts as functional.
The target of experiment [3] is Multidrug resistance protein CDR2 (Candida albicans (strain SC5314 / ATCC MYA-2876) (Yeast), UniProt P78595). Put plainly: inhibition of Nile Red efflux via Candida CDR2 – S. cerevisiae AD1-8u, singleplex, Cherry Pick1 hits, dose response (AID 588604). It counts as functional.
Experiment [4] deals with T2, DNA repair protein RAD52 homolog (Homo sapiens, UniProt P43351).
T2 sequence (P43351 whole entry): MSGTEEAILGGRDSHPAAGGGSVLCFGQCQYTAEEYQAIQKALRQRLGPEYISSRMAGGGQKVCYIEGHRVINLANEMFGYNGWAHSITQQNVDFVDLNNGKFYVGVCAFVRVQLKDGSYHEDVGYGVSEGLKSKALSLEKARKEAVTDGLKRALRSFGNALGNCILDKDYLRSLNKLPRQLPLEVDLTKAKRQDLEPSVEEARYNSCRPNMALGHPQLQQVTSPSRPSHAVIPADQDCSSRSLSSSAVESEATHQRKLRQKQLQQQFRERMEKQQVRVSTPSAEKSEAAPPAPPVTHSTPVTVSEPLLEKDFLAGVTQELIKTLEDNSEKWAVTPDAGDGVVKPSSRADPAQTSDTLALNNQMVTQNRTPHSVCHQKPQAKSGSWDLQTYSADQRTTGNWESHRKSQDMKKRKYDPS
In kind it is functional, biochemical.

Experiment [5] can be described thus: fluconazole-exposed Candida albicans growth modulators – fluorescence, retest, confirmation (AID 2467). It counts as functional, cell-based.
Experiment [6] can be described thus: NIH-3T3 fibroblast cytotoxicity, dose response, cytotoxicity control, cell-based, fluorescence, Alamar Blue, secondary assay (AID 2327).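 Also: NIH-3T3 mouse fibroblasts cultured with fluconazole at 8 µg/mL.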 In kind it is functional. For orientation: The colour change of resazurin is a common sign of viable cells or microbes.
In experiment [7] the target is T3, Neuropeptides B/W receptor type 1 (Homo sapiens, UniProt P48145).
T3 sequence (P48145 whole entry): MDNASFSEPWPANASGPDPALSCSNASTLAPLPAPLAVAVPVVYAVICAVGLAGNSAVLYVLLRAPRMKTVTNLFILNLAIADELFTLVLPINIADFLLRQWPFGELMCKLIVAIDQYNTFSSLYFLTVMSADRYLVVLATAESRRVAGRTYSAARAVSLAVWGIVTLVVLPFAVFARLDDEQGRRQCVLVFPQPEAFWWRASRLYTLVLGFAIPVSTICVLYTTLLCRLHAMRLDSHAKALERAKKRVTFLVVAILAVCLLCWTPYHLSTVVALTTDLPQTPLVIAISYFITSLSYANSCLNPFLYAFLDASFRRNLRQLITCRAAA
In words: human NPBW1 receptor blockade, IC50 – cell-based, fluorescence, dose response, set 5, late-stage follow-up (AID 588566). In kind it is functional.

For experiment [8], the target named is Melanin-concentrating hormone receptor 1 (Homo sapiens, UniProt Q99705). Put plainly: Late-stage fluorescence-based counterscreen for antagonists of the G-protein coupled receptor 7 (GPR7): cell-based dose response assay to identify antagonists of the melanin-concentrating hormone receptor 1 (MCHR1) Set 5. In kind it is functional. (A counterscreen serves to expose hits that act by an unwanted route or on another target.)

Experiment [9] deals with Serine/threonine-protein kinase Chk1 (Homo sapiens, UniProt O14757). It counts as functional.
For experiment [10], the target named is Death-associated protein kinase 3 (Homo sapiens, UniProt O43293). It counts as functional.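 Also: measured as one member of a kinome-wide profiling panel.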
The next experiment addresses LIM domain kinase 1 (Homo sapiens, UniProt P53667). In words: Navigating the Kinome. Panel member name: LIMK1. In kind it is functional.
In experiment [11] the target is G protein-coupled receptor kinase 5 (Homo sapiens, UniProt P34947). Put plainly: Navigating the Kinome. Panel member name: GPRK5. In kind it is functional.
Chain of G protein-coupled receptor kinase 5 (P34947 whole entry): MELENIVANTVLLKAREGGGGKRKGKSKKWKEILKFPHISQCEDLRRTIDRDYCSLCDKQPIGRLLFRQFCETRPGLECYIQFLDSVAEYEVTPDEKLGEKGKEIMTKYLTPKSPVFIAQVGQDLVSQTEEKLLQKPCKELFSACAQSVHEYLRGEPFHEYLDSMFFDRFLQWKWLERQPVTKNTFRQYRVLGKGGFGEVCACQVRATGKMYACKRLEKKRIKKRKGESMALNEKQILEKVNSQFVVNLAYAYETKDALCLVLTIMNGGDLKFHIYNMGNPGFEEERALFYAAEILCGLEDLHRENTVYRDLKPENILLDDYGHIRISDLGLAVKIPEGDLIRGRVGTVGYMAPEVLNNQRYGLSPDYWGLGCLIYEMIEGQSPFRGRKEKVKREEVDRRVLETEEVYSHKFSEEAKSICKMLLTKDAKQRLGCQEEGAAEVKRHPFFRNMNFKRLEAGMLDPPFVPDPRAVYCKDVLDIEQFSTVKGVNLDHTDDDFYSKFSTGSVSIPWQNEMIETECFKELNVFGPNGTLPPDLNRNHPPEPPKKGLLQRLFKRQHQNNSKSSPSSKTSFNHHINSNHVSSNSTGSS

Chain of Serine/threonine-protein kinase Chk1 (O14757 whole entry): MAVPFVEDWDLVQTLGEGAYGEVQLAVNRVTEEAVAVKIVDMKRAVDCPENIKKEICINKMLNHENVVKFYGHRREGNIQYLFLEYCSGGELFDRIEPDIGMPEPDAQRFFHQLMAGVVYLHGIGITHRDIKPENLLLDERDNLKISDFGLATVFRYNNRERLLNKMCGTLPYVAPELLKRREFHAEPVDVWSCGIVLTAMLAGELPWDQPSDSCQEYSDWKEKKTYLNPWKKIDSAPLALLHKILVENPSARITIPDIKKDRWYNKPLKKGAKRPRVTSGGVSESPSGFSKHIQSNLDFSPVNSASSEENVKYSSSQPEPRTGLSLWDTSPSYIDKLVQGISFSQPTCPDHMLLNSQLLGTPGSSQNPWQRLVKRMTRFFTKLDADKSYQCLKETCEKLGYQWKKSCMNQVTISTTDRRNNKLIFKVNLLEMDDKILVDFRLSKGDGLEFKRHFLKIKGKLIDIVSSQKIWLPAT
Chain of LIM domain kinase 1 (P53667 whole entry, the tested form may be a part): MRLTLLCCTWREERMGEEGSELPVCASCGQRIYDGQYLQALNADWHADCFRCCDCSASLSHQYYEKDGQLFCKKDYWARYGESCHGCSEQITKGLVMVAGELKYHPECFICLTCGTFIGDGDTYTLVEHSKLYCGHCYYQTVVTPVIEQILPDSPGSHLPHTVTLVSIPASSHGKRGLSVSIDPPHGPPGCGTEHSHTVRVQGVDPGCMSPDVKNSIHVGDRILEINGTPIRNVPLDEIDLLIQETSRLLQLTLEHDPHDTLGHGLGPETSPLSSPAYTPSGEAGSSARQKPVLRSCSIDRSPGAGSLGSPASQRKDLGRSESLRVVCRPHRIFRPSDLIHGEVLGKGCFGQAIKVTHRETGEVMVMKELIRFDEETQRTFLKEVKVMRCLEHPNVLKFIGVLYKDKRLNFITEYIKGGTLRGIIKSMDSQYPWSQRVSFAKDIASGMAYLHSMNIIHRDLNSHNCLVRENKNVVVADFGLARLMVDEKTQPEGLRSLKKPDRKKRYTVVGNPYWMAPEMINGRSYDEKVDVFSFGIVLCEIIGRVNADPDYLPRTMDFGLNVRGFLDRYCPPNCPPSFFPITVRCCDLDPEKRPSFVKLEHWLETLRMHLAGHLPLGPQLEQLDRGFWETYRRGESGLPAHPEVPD
Chain of Multidrug resistance protein CDR2 (P78595 whole entry): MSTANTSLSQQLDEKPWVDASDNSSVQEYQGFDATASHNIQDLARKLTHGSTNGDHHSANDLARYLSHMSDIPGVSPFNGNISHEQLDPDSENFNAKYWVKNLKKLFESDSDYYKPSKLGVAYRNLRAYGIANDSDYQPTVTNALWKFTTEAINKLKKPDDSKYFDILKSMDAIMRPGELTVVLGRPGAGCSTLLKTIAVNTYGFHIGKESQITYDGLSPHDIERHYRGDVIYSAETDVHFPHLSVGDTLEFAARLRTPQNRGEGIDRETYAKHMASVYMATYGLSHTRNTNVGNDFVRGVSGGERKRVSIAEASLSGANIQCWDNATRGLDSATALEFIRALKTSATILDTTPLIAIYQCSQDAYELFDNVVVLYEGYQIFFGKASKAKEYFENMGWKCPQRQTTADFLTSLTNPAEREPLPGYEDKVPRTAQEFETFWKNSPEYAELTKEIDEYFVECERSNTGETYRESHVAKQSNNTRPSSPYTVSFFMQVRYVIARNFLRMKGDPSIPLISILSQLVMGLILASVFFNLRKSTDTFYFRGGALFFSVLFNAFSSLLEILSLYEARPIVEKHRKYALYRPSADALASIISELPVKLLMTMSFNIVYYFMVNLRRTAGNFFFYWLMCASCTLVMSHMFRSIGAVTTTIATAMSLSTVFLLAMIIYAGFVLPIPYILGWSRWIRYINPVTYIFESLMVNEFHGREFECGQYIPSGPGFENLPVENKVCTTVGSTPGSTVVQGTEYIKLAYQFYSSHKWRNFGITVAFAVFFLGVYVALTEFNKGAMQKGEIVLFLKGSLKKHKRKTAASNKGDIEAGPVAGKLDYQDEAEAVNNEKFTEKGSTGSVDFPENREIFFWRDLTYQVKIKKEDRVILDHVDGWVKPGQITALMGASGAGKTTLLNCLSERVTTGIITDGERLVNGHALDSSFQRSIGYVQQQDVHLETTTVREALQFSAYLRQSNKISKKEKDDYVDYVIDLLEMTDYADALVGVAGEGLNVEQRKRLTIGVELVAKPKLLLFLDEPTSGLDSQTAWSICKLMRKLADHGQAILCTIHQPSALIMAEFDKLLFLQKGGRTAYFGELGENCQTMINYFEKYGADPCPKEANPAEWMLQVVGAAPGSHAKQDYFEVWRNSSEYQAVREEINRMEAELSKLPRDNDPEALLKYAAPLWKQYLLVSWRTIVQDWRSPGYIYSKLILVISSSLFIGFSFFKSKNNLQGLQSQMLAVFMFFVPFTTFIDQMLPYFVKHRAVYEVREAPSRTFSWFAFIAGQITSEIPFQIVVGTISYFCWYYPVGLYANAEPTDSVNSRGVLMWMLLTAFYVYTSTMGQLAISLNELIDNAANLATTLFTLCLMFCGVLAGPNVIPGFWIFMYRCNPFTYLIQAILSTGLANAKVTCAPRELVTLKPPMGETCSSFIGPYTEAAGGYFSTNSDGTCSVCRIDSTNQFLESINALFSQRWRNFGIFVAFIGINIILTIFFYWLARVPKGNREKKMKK
Chain of Melanin-concentrating hormone receptor 1 (Q99705 whole entry): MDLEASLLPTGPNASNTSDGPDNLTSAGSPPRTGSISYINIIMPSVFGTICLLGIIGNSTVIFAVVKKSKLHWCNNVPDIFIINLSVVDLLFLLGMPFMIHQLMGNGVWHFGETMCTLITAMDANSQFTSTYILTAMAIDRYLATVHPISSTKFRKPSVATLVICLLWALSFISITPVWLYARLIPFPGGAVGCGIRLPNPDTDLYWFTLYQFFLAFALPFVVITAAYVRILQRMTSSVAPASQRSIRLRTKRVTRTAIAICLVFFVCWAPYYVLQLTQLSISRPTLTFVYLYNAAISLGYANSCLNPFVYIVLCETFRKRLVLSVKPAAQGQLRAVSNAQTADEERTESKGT
Chain of Death-associated protein kinase 3 (O43293 whole entry, the tested form may be a part): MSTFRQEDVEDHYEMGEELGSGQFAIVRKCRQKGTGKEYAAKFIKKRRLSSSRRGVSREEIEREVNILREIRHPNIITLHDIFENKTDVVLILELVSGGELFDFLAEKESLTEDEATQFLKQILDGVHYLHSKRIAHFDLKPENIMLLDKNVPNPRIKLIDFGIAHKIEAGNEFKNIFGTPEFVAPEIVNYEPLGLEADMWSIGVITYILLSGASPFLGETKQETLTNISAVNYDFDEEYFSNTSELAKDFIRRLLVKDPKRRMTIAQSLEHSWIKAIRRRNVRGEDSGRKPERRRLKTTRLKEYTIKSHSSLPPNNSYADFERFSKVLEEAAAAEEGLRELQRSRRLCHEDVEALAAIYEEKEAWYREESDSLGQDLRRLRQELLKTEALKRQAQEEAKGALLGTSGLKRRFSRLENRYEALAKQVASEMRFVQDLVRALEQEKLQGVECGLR

Broadly, the IC50 is the concentration at which inhibition is half-maximal. Regarding `COc1ccc(C(=O)NCCCSC)cc1OC1CCN(C(C)C)CC1`, the concentration for half-maximal inhibition (IC50) in [1] was 4.74 µM (active); in experiment [2], 8.13 µM (active).
A word on the EC50: it is the midpoint of the concentration-response curve. One may read the AC50 as the concentration at which the activity in the assay is half-maximal. Turning to `Cc1c(CCOC(=O)CC23CC4CC(CC(C)(C4)C2)C3)sc[n+]1Cc1ccc([N+](=O)[O-])cc1`, the 50% effective concentration (EC50) in experiment [3] was 10.9 µM (active); in experiment [5], > 38 µM (not active); in experiment [6], > 150 µM (inactive). Moreover, the AC50 in [4] is 15.6 µM (active).
Take `CCOC(=O)C(C(N)=O)c1c(Cl)cnn(Cc2cccc3ccccc23)c1=O` (configuration not stated): the IC50 in [7] is 11.8 µM (inactive); in experiment [8], > 20 µM (inactive).
As usually defined, the Ki is a measure of affinity in units of concentration, obtained from inhibition or displacement. In the case of `Cc1nn(C)c(C)c2cc([N+](=O)[O-])cc1-2`, the Ki was 1.58 µM (active) in [9], 3.98 µM (active) in [10], 2 µM (active) at LIM domain kinase 1 and 3.98 µM (active) in experiment [11].

The values are drawn from ChEMBL document CHEMBL1201862, “PubChem BioAssay data set” (2004).
